The test system of test [1] is epithelial tumor cell lines, HUVECs. Put plainly: Apoptotic assay with gp 120 and Nef peptides. Format: cell-based, human. An excerpt:
The nef protein was expressed and purified in the inventors' laboratory. overlapping 20 mer peptides encompassing the entire nef protein and overlapping 15 mer peptides encompassing the entire gp 120 protein were obtained from the NIH AIDS Research & Reference Reagent Program (McKesson HBC BioServices, MD) Other specific peptides designed from within gp 120 or nef were obtained from SigmaGenosys.
Apoptosis, Terminal Deoxynucleotidyl Transferase dUTP Nick-end Labeling (TUNEL) Assay
Apoptosis generates DNA free ends which can be labeled in situ using terminal deoxynucleotidyl-transferase (TdT), incorporating an exogenously added labeled nucleotide to the DNA strand. This label can then be visualized directly by fluorescence or indirectly using anti-FITC-peroxidase, and a calorimetric assay. Cells on coverslips were washed with PBS, and fixed for 30 minutes at RT with 4% paraformaldehyde, in PBS, pH 7.4. They were then washed with PBS, and permeabilized with 0.1% Triton X-100
for 10 minutes at room temperature (RT). The slides were rinsed twice with PBS, and air dried for 2 minutes. The manufacturer's procedure for TUNEL staining the slides was followed (manufacturer's procedure for the In Situ Cell Death Detection Kit, AP; Boehringer Mannheim, Indianapolis, Ind.). Total cell counts were determined by counterstaining fixed cultures with 20 μg/ml of Hoechst 33258. All specimens were observed by epifluorescence on a computer-controlled microscope system based on a Zeiss Axioskop microscope (Carl Zeiss, Thornwood, N.Y.), and the images were obtained and examined using a charged coupled device (CCD) camera, MagnaFire, model S99806 (Olympus American, Melville, N.Y.). Images were examined using Image-Pro Plus 4.1 for Windows (Media Cybernetics, Silver Springs, Md.) software.
Overlapping peptide sets obtained from the AIDS Reagent Bank were used in the apoptotic assay as disclosed above. Specific pg 120 and Nef peptides within those sets were identified as inducing apoptosis in epithelial tumor cell lines, as well as in HUVECs. Alternatively, these same peptides had no effect in primary mammary epithelium or in MDA-MB-468 tumor lines.

For test [2], the system named is MDA-MB-231, MCF7, DU4475. Put plainly: Agarose gel electrophoresis/DNA fragmentation, CXCR4 expressing cell lines. Particulars: 10 mM (6.35 mg/ml) ceramide. Format: cell-based, human. The protocol:
Apoptosis Assay: Agarose Gel Electrophoresis/DNA Fragmentation
Untreated or treated cells were collected, and DNA was harvested from normal or cancer cell cultures. Briefly, the cells were washed with PBS, pelleted at 1600 g for 20 minutes at 4° C., and resuspended in 50 mM Tris-HCl, pH 7.5, 20 mM EDTA buffer at about 10^ 7 cells/ml. The cells were then treated 2× with lysis buffer: 1.0% NP-40 (Sigma, St. Louis, Mo.) in the same Tris/EDTA buffer at RT for 2 minutes followed, by centrifugation at 1600 g for 5 minutes. After the last spin, SDS was added to the supernatant to 1% final concentration, RNase A (Sigma, St. Louis, Mo.) was added to 5 mg/mil final concentration, and the solution incubated at 56° C. for 2 hours. Subsequently, protease K (Promega, Madison, Wis.) was added to the solution to 2.5. µg/ml and incubated at 37° C. for 2.5 hr. Ammonium acetate was added to 4 M final concentration, 0.7 volumes of isopropanol was added, the solution was put at −20° C. overnight followed by centrifugation at 14,000 rpm for 30 minutes. The pellets were washed twice with 70% ethanol, dried and resuspended in 10 mM Tris-HCl, pH […]. DNA samples, 18 µg per condition, were prepared in neutral loading buffer to a final concentration of 0.02% bromophenol blue, 5% glycerol, 0.1% SDS, and 50 µg of ethidium bromide, loaded onto a neutral agarose gel (1.7%), and run at50V for 2.5 hours. […]

For “GRAFYTT [Seq. I.D. No. 9, motif within the V3 loop of Gp 120, amino acids 315 to 321]”, in test [1], the “apoptotic/modulator properties of peptide or motif” value is listed as “apoptosis-inducing motif”.

As for Ceramide, the “DNA laddering, positive control” value in test [2] is “DNA laddering characteristic of apoptotic cells was observed”.

Turning to “ALAETCONAWA [Seq. I.D. No. 8, reference compound]”, the “apoptotic/modulator properties of peptide or motif” value in test [1] is “lost all apoptotic effects”.

With “NAACAWLEAQ [Seq. I.D. No. 7, 10 mer peptide spanning amino acids 50-60 of the Nef protein]”, the “apoptosis relative to that observed for the full Nef protein” value in test [1] (equivalent molar ration (10 mer peptide is 5% the amount of full protein)) is on record as ~100%.

As to GRAFYTTKY [Seq. I.D. No. 11], the “apoptosis relative to that observed from the full gp 120 protein” value in test [1] (equivalent molar ration (9 mer peptide is 2% of the full protein)) is reported as “about 60%”.

Source of the values: US7312305B2, “Tumor cytotoxicity induced by modulators of the CXCR4 receptor” (Morehouse School of Medicine, priority 2003, dated 2007).
